Data as given in the supplement of paper PMC10307832.

Experiments:
Assay in all cases: relative viability (nuclei count vs DMSO), 5 days (fraction); higher = more cells survive
[1] = compound: Cc1cc([C@@H](C)Nc2ccccc2C(=O)O)c2nc(N3CCOCC3)cc(=O)n2c1 [AZD6482]
Procedure, shortened: (§1)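 A plate was accepted only when its control CV was below 25% and the cells had doubled at least once. Viability is defined from nuclear counts as treated wells divided by vehicle wells, with the median taken across plates. That median covers lung cancer cell lines grown in 1536-well plates, dosed by pinning at five √10-spaced library-drug concentrations, and counted in MetaXpress from 4× Hoechst images after 5 days.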

[2] = compound: COc1cc2nc(N3CCCN(C)CC3)nc(NC3CCN(Cc4ccccc4)CC3)c2cc1OC
Procedure, shortened: as §1

[3] = compound: Cc1cc([C@@H](C)Nc2ccccc2C(=O)O)c2nc(N3CCOCC3)cc(=O)n2c1 [AZD6482] + Cc1cc(Nc2cc(N3CCN(C)CC3)nc(Sc3ccc(NC(=O)C4CC4)cc3)n2)n[nH]1 [Tozasertib] (partner 0.1 µM)
Procedure, shortened: (§2)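 The day after seeding in 1536-well plates, lung cancer cell lines were treated by pin tool with a single drug, or with a fixed anchor-drug dose together with five library-drug doses (not always all listed) in √10 steps. After 5 days, a combined fix-and-stain solution (final 0.05% Triton X-100, 1% formaldehyde, 1 ug/ml Hoechst) was added. Nuclei counted on 4× images gave relative viability as treated counts over vehicle counts, reported as the median of duplicate plates.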

[4] = compound: COc1cc2nc(N3CCCN(C)CC3)nc(NC3CCN(Cc4ccccc4)CC3)c2cc1OC + CC1(C)CCC(c2ccc(Cl)cc2)=C(CN2CCN(c3ccc(C(=O)NS(=O)(=O)c4ccc(N[C@H](CCN5CCOCC5)CSc5ccccc5)c(S(=O)(=O)C(F)(F)F)c4)cc3)CC2)C1 [Navitoclax] (partner 0.5 µM)
Procedure, shortened: as §2

UMC-11
relative viability ([1]; 0.08 µM): 0.949
relative viability ([1]; 0.253 µM): 0.94
relative viability ([1]; 0.8 µM): 1.01
relative viability ([1]; 2.53 µM): 0.736
relative viability ([1]; 8 µM): 1.22
relative viability ([2]; 0.2 µM): 0.998
relative viability ([2]; 0.6325 µM): 0.973
relative viability ([2]; 2 µM): 1.06
relative viability ([2]; 6.325 µM): 0.932
relative viability ([3]; first compound 0.08 µM): 0.19
relative viability ([3]; first compound 0.253 µM): 0.209
relative viability ([3]; first compound 0.8 µM): 0.186
relative viability ([3]; first compound 2.53 µM): 0.23
relative viability ([3]; first compound 8 µM): 0.201
relative viability ([4]; first compound 0.2 µM): 0.315
relative viability ([4]; first compound 0.6325 µM): 0.333
relative viability ([4]; first compound 2 µM): 0.317
relative viability ([4]; first compound 6.325 µM): 0.254
